Source: US20220340597A1, “HEXAHYDRO-1H-PYRAZINO[1,2-A]PYRAZINE COMPOUNDS FOR THE TREATMENT OF AUTOIMMUNE DISEASE” (Hoffmann-La Roche Inc., priority 2019, published 2022)
pIC50: −log10 of the molar value.

What was measured:
human TLR8 = target: T1, human TLR8 (Homo sapiens, UniProt Q9NR97); assay: HEK293-Blue-hTLR-8 cells assay
T1 sequence (Q9NR97 27-1041): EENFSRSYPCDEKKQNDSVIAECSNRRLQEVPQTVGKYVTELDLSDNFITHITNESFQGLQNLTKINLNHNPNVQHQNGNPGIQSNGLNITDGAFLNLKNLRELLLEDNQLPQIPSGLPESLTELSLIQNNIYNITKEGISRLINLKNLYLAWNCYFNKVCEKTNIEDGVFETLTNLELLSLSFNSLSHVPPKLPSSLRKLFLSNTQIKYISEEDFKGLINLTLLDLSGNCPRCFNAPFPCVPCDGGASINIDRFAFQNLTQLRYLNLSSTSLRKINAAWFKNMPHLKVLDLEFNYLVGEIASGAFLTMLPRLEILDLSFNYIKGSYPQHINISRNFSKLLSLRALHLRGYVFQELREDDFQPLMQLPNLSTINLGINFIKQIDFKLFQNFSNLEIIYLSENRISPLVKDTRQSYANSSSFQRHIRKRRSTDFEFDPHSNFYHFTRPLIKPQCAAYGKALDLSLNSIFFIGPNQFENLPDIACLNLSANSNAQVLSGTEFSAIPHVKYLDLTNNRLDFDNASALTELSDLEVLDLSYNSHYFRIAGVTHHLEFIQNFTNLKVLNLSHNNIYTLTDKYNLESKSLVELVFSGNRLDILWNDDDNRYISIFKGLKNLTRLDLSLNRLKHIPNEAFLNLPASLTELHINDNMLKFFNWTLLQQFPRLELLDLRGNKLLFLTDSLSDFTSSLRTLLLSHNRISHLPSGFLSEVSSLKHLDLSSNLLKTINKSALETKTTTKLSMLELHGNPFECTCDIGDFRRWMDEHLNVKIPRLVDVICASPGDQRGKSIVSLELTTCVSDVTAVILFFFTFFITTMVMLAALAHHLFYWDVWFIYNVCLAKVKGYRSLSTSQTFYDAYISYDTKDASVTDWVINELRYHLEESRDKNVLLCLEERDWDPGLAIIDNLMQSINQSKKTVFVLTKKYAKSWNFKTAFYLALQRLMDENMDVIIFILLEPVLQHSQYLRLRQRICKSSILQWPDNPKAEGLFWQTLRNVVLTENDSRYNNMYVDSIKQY

human TLR7 = target: T2, human TLR7 (Homo sapiens, UniProt Q9NYK1); assay: HEK293-Blue-hTLR-7 cells assay; assay type: cell-based; conditions: HEK293-Blue-hTLR7 cells, R848 stimulation, 20 hrs, SEAP reporter; read-out: HEK/hTLR7 IC50
T2 construct: host or cells: HEK293 (HEK-Blue hTLR7)
T2 sequence (Q9NYK1 27-1049): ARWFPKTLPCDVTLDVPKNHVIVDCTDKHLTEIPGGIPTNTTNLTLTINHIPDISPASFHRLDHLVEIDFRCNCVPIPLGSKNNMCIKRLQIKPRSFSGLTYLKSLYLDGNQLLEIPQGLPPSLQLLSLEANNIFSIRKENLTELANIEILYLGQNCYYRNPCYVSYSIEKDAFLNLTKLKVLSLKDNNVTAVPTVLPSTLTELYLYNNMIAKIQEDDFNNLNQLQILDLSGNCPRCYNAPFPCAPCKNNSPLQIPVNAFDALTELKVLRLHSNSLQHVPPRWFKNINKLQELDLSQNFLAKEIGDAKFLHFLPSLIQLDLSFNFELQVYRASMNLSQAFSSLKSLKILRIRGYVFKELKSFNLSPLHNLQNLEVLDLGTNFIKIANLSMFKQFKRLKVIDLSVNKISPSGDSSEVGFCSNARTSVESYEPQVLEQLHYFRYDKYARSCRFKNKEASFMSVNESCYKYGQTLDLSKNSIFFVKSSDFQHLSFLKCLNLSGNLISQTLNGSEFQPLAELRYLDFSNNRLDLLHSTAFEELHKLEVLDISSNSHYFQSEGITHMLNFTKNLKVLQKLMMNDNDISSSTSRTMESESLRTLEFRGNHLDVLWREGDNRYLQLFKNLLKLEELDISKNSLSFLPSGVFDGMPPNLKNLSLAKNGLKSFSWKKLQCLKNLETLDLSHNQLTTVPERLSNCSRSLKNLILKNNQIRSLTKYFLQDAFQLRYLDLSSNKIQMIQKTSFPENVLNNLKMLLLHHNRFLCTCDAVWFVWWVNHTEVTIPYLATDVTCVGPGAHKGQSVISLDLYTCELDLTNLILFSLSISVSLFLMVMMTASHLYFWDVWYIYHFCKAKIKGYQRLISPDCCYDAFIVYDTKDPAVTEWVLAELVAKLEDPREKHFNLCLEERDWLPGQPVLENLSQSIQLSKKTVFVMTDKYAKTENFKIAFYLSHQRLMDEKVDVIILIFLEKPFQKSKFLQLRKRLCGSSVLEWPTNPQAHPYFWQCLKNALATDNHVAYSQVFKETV

Structure (SMILES)	pIC50 (human TLR8)	pIC50 (human TLR7)
C[C@@H]1CN(c2ccc(C#N)c3ncccc23)C[C@@H]2CN(c3ccnc(N4CC(N)C4)c3)CCN21 [Example 41, 5-[(4R,9aS)-8-[2-(3-aminoazetidin-1-yl)-4-pyridyl]-4-methyl-3,4,6,7,9,9a-hexahydro-1H-pyrazino[1,2-a]pyrazin-2-yl]quinoline-8-carbonitrile]	8.15	7.46
Cc1cc(N2CCN3[C@@H](C2)CN(c2ccc(C#N)c4ncccc24)C[C@H]3C)nc(N2CCNCC2)n1 [Example 31, 5-[(4R,9aR)-4-methyl-8-(6-methyl-2-piperazin-1-yl-pyrimidin-4-yl)-3,4,6,7,9,9a-hexahydro-1H-pyrazino[1,2-a]pyrazin-2-yl]quinoline-8-carbonitrile]	7.62	7.66
[2H]c1ccc2c(N3C[C@@H]4CN(c5ncc(C(=O)N6CC7(CN(C)C7)C6)cc5C)CCN4[C@@H](C)C3)ccc(C#N)c2n1 [Example 103, 5-[(4S,9aR)-4-methyl-8-[3-methyl-5-(6-methyl-2,6-diazaspiro[3.3]heptane-2-carbonyl)-2-pyridyl]-3,4,6,7,9,9a-hexahydro-1H-pyrazino[1,2-a]pyrazin-2-yl]-2-deuterio-quinoline-8-carbonitrile]	8.40	8.22
[2H]c1ccc2c(N3C[C@@H]4CN(CCc5ccc(N6C[C@H]7NCCO[C@@H]7C6)nc5)CCN4[C@H](C)C3)ccc(C#N)c2n1 [Example 77, 5-[(4R,9aS)-8-[2-[6-[(4aR,7aR)-3,4,4a,5,7,7a-hexahydro-2H-pyrrolo[3,4-b][1,4]oxazin-6-yl]-3-pyridyl]ethyl]-4-methyl-3,4,6,7,9,9a-hexahydro-1H-pyrazino[1,2-a]pyrazin-2-yl]-2-deuterio-quinoline-8-carbonitrile]	7.62	7.68
C[C@@H]1CN(c2ccc(C#N)c3ncccc23)C[C@@H]2CN(Cc3ccc(N4CCNCC4)nc3)CCN21 [Example 8, 5-[(4R,9aS)-4-methyl-8-[(6-piperazin-1-yl-3-pyridyl)methyl]-3,4,6,7,9,9a-hexahydro-1H-pyrazino[1,2-a]pyrazin-2-yl]quinoline-8-carbonitrile]	7.28	7.66
[2H]c1ccc2c(N3C[C@@H]4CN(CCc5ccc(N6CC7(CN(C)C7)C6)nc5)CCN4[C@H](C)C3)ccc(C#N)c2n1 [Example 64, 5-[(4R,9aS)-4-methyl-8-[2-[6-(6-methyl-2,6-diazaspiro[3.3]heptan-2-yl)-3-pyridyl]ethyl]-3,4,6,7,9,9a-hexahydro-1H-pyrazino[1,2-a]pyrazin-2-yl]-2-deuterio-quinoline-8-carbonitrile]	7.49	7.64
[2H]c1ccc2c(N3C[C@@H]4CN(c5ccc(CCN6C[C@@H](N)[C@@H](F)C6)nc5)CCN4[C@@H](C)C3)ccc(C#N)c2n1 [Example 117, 5-[(4S,9aR)-8-[6-[2-[(3R,4S)-3-amino-4-fluoro-pyrrolidin-1-yl]ethyl]-3-pyridyl]-4-methyl-3,4,6,7,9,9a-hexahydro-1H-pyrazino[1,2-a]pyrazin-2-yl]-2-deuterio-quinoline-8-carbonitrile]	7.62	7.64
C[C@@H]1CN(c2ccc(C#N)c3ncccc23)C[C@@H]2CN(c3cccc4c3CNC4)CCN21 [Example 9, 5-[(4R,9aS)-8-isoindolin-4-yl-4-methyl-3,4,6,7,9,9a-hexahydro-1H-pyrazino[1,2-a]pyrazin-2-yl]quinoline-8-carbonitrile]	9.00	8.52
C[C@@H]1CN(c2ccc(C#N)c3ncccc23)C[C@@H]2CN(c3nccc(N4CCNCC4)n3)CCN21 [Example 30, 5-[(4R,9aR)-4-methyl-8-(4-piperazin-1-ylpyrimidin-2-yl)-3,4,6,7,9,9a-hexahydro-1H-pyrazino[1,2-a]pyrazin-2-yl]quinoline-8-carbonitrile]	7.68	7.80
C[C@@H]1CN(c2ccc(C#N)c3ncccc23)C[C@@H]2CN(Cc3cccc4c3CNCC4)CCN21 [Example 71, 5-[(4R,9aS)-4-methyl-8-(1,2,3,4-tetrahydroisoquinolin-8-ylmethyl)-3,4,6,7,9,9a-hexahydro-1H-pyrazino[1,2-a]pyrazin-2-yl]quinoline-8-carbonitrile]	7.68	7.35
[2H]c1ccc2c(N3C[C@@H]4CN(c5ccc(CCN6C[C@H](OC)[C@@H](N)C6)cn5)CCN4[C@@H](C)C3)ccc(C#N)c2n1 [Example 122, 5-[(4S,9aR)-8-[5-[2-[(3S,4S)-3-amino-4-methoxy-pyrrolidin-1-yl]ethyl]-2-pyridyl]-4-methyl-3,4,6,7,9,9a-hexahydro-1H-pyrazino[1,2-a]pyrazin-2-yl]-2-deuterio-quinoline-8-carbonitrile]	8.52	8.05
CO[C@H]1CN(c2ccc(CCN3CCN4[C@@H](C3)CN(c3ccc(C#N)c5ncccc35)C[C@H]4C)cn2)C[C@H]1N [Example 24, 5-[(4R,9aS)-8-[2-[6-[(3R,4S)-3-amino-4-methoxy-pyrrolidin-1-yl]-3-pyridyl]ethyl]-4-methyl-3,4,6,7,9,9a-hexahydro-1H-pyrazino[1,2-a]pyrazin-2-yl]quinoline-8-carbonitrile]	7.82	8.10
C[C@@H]1CN(c2ccc(C#N)c3ncccc23)C[C@@H]2CN(Cc3ccc(N4CCCNCC4)nc3)CCN21 [Example 15, 5-[(4R,9aS)-8-[[6-(1,4-diazepan-1-yl)-3-pyridyl]methyl]-4-methyl-3,4,6,7,9,9a-hexahydro-JH-pyrazino[1,2-a]pyrazin-2-yl]quinoline-8-carbonitrile]	7.55	7.31
C[C@@H]1CN(c2ccc(C#N)c3ncccc23)C[C@@H]2CN(Cc3cnc4c(c3)CNCC4)CCN21 [Example 6, 5-[(4R,9aS)-4-methyl-8-(5,6,7,8-tetrahydro-1,6-naphthyridin-3-ylmethyl)-3,4,6,7,9,9a-hexahydro-1H-pyrazino[1,2-a]pyrazin-2-yl]quinoline-8-carbonitrile]	7.85	7.85
C[C@@H]1CN(c2ccc(C#N)c3ncccc23)C[C@@H]2CN(c3ccnc(N4CCNCC4)c3)CCN21 [Example 32, 5-[(4R,9aS)-4-methyl-8-(2-piperazin-1-yl-4-pyridyl)-3,4,6,7,9,9a-hexahydro-1H-pyrazino[1,2-a]pyrazin-2-yl]quinoline-8-carbonitrile]	7.96	7.80
Cc1cc(N2CCOC[C@H](N)C2)ncc1N1CCN2CCN(c3ccc(C#N)c4ncccc34)CC2C1 (stereo partly drawn) [Example 46, 5-[2-[6-[(6R)-6-amino-1,4-oxazepan-4-yl]-4-methyl-3-pyridyl]-3,4,6,7,9,9a-hexahydro-1H-pyrazino[1,2-a]pyrazin-8-yl]quinoline-8-carbonitrile]	7.89	7.85
